In patent US5334595A, “Pyrazoloquinolones as anticancer agents” (priority 1992, dated 1994) one finds IC50, EC50 and MTD data, which are given here for 18 compounds.

In data set [1] the test system is P388 murine leukemia cells. As to the kind of experiment: In vitro cytotoxicity, continuous (48-hour) exposure of P388 cells. In kind it is cell-based. The settings on record: Mus musculus; P388, continuous exposure (48-hour); read-out: in vitro cytotoxicity IC50, cont. exp. The protocol: (§1) In vitro cytotoxicity was assayed by determining cell survival following exposure of P388 murine leukemia cells to a range of test compound concentrations. Cytotoxicity was quantitated following either a one-hour exposure or continuous exposure of P388 cells to test compound.
(§2) A Manual of Basic Technique. […] Briefly, following drug exposure cells were plated in soft agar and incubated (37°, 5% CO2) for 7-10 days during which time viable cells form visible colonies. Cytotoxicity following continuous exposure of cells to test compound was assayed by quantitating total P388 cells on a Coultier Counter following a 48-hour co-incubation of test compound with cells. P388 cells were maintained in log phase throughout the duration of cytotoxicity assays.
(§3) The percentage of cells surviving relative to an untreated control was graphed as a function of increasing drug concentration.

Data set [2] has as its system P388 murine leukemia cells. The data set is described as follows: In vitro cytotoxicity, one-hour exposure, clonogenic survival of P388 cells. In kind it is cell-based. The settings on record: Mus musculus, read-out: in vitro cytotoxicity IC50, 1 hr exp.; P388, 1 hr exposure. As to the method:
as §1, §2, §3

For the next data set, the target named is T1, human topoisomerase II (Homo sapiens, UniProt P11388).
T1 construct: Topo II was purified from late log phase suspension cultures of HeLa WIS; endogenous in cells; host or cells: HeLa WIS
The data set is described as follows: Mammalian topoisomerase II inhibition assay (topo II covalently attached to DNA, relative to mAMSA). In kind it is biochemical. The conditions noted are these: read-out: topo II inh. EC50. The source says: The inhibition of human topoisomerase II (hereafter topo II) was quantitated by a procedure adapted from that described by Trask et al., EMBO J., 3, 671-676 (1984). The assay quantitates the amount of topo II covalently attached to DNA at equilibrium during a topo II reaction. This assay determines the potential of a compound to stabilize this complex, which potential is closely related to the cytotoxicity of the compound.
Topo II was purified from late log phase suspension cultures of HeLa WIS by an adaptation of the method described by Per et al., Mol. Pharmacol., 32, 17-25 (1987).
Assays (in duplicate) were assembled at 4° C. Assay mix (25 μl) was distributed in Beckman (No. 265270) 1.5 mL microtiter tubes followed by the addition of 5 μl test compound to yield the final concentrations of assay components:
The assay mix including the test compound was incubated for 20 minutes at 37° C. The reaction was terminated at 37° C. by the addition of 3 μl 10% SDS followed by the addition of 266 μl 10 mM Tris-Cl pH 7.5, 20 μg/ml BSA, 20 μg/ml calf thymus DNA, 1% SDS.
A SDS/protein precipitate was formed by the addition of 28 μl 2.5M KCl followed by chilling on ice for a minimum of 10 minutes. The precipitate was collected and washed with a Brandell cell harvester on a GFB glass fiber filter membrane as follows. The contents of the assay tube were drawn up into the harvester. The tube was then rinsed 7× with 10 mM Tris-Cl pH 7.5, 1 mM EDTA and 100 mM KCl. The precipitate was washed with 1 L of a solution of 10 mM Tris-Cl pH 7.5, 1 mMEDTA, 100 mM KCl followed by 1 L of 95% ethyl alcohol and finally 0.5 L 70% of ethyl alcohol (per 48 samples in each case). After drying, CPM was determined by liquid scintillation counting with 5 ml Biofluor (NEN Research Products) or Readisafe (Beckman Instruments Inc.) cocktail.
Preparation of test compound--A stock solution (6 mg/ml) of test compound was prepared either in 0.1N sodium hydroxide or 0.2N hydrogen chloride. This solution then was diluted 1/5 into water and serially thereafter in either 0.02N sodium hydroxide or 0.04N hydrogen chloride, respectively. The stock solution and serial dilution of the test compound was stored at -20° C. prior to testing.
Screening of test compound--As an initial screen, the test compound was tested at a final concentration of 2, 20 and 200 μg/ml. The compound was then retested at a range of concentrations (usually 2-3×steps) bridging their approximate EC50 's, as estimated by the prescreen.
Controls--A solvent control which indicates the base level of topo II-DNA complex formed in the absence of the test compound was included in each test. A control, in which topo II was omitted, was included for each test compound at the highest drug concentration tested.
Reference Agent--A dose response curve with mAMSA at 0.01, 0.08, 0.16, 0.32, 1.0 and 10 μg/ml was included in each test.
The maximal DNA-topo II complex formed is taken as that equal to that formed at the nearly saturating dose of mAMSA (10 μg/ml).

Data set [3] in a line: In vivo antitumor assay, Panc03(sc). The settings on record: mouse, in vivo, MTD. More on the design: species or system mice. The source says: Mice: Inbred: C3H/He and NCR-nu; and Hybrids: B6D2F1 (C57BL/6 females×DBA/2 males, CD2F1 (Balb/c females×DBS/2 males) and B6C3fl (C57BL/6×C3H) were bred at Wayne State University from strains obtained from the Frederick Cancer Research Facility, Frederick, Maryland or purchased from commercial suppliers.
Tumors: Murine Tumor: P388 and an adriamycin-resistant (ADR) subline P388/ADR leukemia and the following transplantable solid tumors of mice were used for in vivo testing: B16 melanoma (B16), pancreatic ductal adenocarcinoma No. 03 (Pane 03), colon adenocarcinoma No. 38 (colo 38), lung carcinoma No. 12 (LC 12), mammary ductal adenocarcinoma No. 16/C (Mam16C) and an adriamycin-resistant subline Mam16C/ADR. Human tumor: A single human tumor, mammary carcinoma MX-1 was used for in vivo testing. All tumors are in the Developmental Therapeutics Program frozen tumor respository, maintained by the Biological Testing Branch, Frederick Maryland. Each has a detailed description, code identification number, and list of references at the National Tumor Repository. Murine tumors were maintained in the mouse strain of origin and were transplanted in the appropriate F1 hydrid (or the strain of origin) for therapy trials. Human mammary carcinoma MX-1 (MX1) was maintained as a subcutaneous implant in either athymic Swiss (Cr: NIH(S)-nu) or athymic random bred (NCR-nu) mice and transplanted in NCR-nu for therapy trials.
Chemotherapy: For pancreatic ductal adenocarcinoma No. 3, colon adenocarcinoma No. 38 (colo 38), lung carcinoma No. 12 LC 12) and both adriamycin-sensitive (RP) and-resistant (ADR) mammary ductal adenocarcinoma No. 16 (Mam16) tumors, bilateral tumor implants were used to help ensure a more uniform tumor burden per mouse (thus reducing the requirement for greater numbers of mice per group). The animals necessary to begin an experiment were pooled, implanted bilaterally s.c. on day zero with 30-60 mg tumor fragments using a 12-gauge trocar, and again pooled before randomization to the various treatment and control groups. Chemotherapy was started within three days after tumor implantation while the number of cells per mouse was relatively small (1×10^7 -1×10^8 cells).
Quantitative end points used to assess antitumor activity included % Increased Life Span (% ILS), Tumor Cell Kill (Log10 kill), and Tumor Growth Inhibition (T/C). Long Term Survivors (45 or 60 day) were excluded from calculations of %ILS and Tumor Cell Kill.
The log10 cell kill was calculated from the following formula: [formula] where T-C is the tumor difference in the median day of death between the treated (T) and the control (C) groups and Td is the tumor doubling time (in days), the latter estimated from the best fit straight line from a log-linear growth plot of the control-group tumors in exponential growth. The conversion of the T-C values to log10 cell kill is possible because the Td for tumors regrowing post-treatment approximated the Td values of the tumors in untreated control mice.
Tumors were measured with a caliper once or twice weekly (as needed) until either tumors exceeded 1600 mg or cure was assured. Tumor weights were estimated from two-dimensional measurements: Tumor Weight (mg)=(a×b^2) / 2, where a and b are the tumor length and width (ram) respectively. Measurements were carried out simultaneously in both treatment and control groups. When the control group tumors reached approximately 750-1500 mg in size (median of group), the median tumor weight of each group was determined (including zeros). The T/C value in percent is an indication of antitumor effectiveness. The % T/C was calculated from the following formula for solid murine tumor models: [formula] where T and C are median tumor weights of the treatment and control groups, respectively. A T/C equal to or less than 42% is considered significant antitumor activity. […]

[4] abbreviates: conc. achieving 50% of maximal effect of mAMSA, topo II from HeLa cells.

Molecules are shown by their SMILES. Read-outs that look alike come from different tables or passages of the source.

T1 sequence (P11388 whole entry): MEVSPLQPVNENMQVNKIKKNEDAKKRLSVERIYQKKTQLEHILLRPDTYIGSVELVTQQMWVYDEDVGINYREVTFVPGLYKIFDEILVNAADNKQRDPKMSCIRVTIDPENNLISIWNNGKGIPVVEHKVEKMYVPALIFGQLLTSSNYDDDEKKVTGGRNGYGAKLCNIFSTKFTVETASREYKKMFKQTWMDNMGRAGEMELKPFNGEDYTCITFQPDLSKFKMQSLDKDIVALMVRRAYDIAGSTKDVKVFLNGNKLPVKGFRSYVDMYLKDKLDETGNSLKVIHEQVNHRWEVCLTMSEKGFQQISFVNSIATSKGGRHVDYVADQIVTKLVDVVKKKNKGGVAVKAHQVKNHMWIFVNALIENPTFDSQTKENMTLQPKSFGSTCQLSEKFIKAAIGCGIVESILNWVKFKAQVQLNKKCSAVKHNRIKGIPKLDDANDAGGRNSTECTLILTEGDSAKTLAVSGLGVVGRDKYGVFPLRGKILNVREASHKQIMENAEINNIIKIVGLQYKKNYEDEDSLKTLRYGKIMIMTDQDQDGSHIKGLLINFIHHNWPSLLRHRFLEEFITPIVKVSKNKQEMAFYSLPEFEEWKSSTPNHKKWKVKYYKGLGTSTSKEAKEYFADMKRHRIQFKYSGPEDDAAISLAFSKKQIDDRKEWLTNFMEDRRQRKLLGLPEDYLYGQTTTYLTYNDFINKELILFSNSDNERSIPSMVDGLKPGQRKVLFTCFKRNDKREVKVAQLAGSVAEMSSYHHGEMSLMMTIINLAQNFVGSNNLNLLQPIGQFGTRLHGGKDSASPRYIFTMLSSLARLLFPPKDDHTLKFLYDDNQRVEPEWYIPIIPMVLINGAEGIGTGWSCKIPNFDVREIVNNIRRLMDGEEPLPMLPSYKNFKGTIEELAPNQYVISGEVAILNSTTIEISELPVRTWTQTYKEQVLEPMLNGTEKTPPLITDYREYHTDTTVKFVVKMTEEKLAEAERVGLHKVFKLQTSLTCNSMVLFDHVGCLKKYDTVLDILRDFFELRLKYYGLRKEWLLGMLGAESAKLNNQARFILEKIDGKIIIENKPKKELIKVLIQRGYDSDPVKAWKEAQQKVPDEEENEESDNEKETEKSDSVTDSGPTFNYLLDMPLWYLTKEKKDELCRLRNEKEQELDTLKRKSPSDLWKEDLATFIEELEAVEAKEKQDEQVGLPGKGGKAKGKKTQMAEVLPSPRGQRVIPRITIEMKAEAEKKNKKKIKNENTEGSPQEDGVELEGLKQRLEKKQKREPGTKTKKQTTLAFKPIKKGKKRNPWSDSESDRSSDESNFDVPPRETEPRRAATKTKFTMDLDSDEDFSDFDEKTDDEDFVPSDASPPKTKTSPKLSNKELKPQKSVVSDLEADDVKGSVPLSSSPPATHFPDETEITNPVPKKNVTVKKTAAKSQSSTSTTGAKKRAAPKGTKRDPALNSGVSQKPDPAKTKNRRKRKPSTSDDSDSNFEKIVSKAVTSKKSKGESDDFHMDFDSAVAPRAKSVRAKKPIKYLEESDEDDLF

With `CCN(CC)CCCn1nc2c3cc(F)c(-c4cc(C)nc(C)c4)c(F)c3n(C3CC3)cc-2c1=O` [Example 16], the IC50 (in general, the concentration needed to halve the response being measured) came out at 1200 nM in data set [1] and 490 nM in data set [2]. Also, the concentration giving a half-maximal response (EC50) – broadly, the concentration that produces a half-maximal response – at human topoisomerase II (setting [4]) was 6000 nM.
As for `Cc1cc(-c2c(F)cc3c4nn(CCN5CCCC5)c(=O)c-4cn(C4CC4)c3c2F)cc(C)n1` [Example 18], the half-inhibitory concentration (IC50) in data set [1] amounted to 35 nM; in data set [2], 300 nM. For the same compound, on human topoisomerase II, the EC50 turned out to be 650000 nM.
On to `Cc1cc(-c2c(F)cc3c4nn(CCN5CCOCC5)c(=O)c-4cn(C4CC4)c3c2F)cc(C)n1` [Example 20], for which the 50% inhibitory concentration (IC50) in data set [1] was found to be 410 nM; in data set [2], 2800 nM. Moreover, at human topoisomerase II (setting [4]), the EC50 came to 48000 nM.
For the compound `Cc1cc(-c2c(F)cc3c4nn(-c5ccccc5)c(=O)c-4cn(C4CC4)c3c2F)cc(C)n1` [Example 22], the IC50 in data set [1] was found to be 840 nM. Also, the half-maximal effective concentration (EC50) at human topoisomerase II (setting [4]) is 2700 nM. Besides, in data set [3] (sc), the MTD is 635 mg/kg.
In the case of `COc1ccc(-n2nc3c4cc(F)c(-c5cc(C)nc(C)c5)c(F)c4n(C4CC4)cc-3c2=O)cc1` [Example 23], the IC50 in data set [1] was found to be 5200 nM. The concentration giving a half-maximal response (EC50) at human topoisomerase II (footnote c: bell-shaped dose response curve noted, 50% of maximal effect of mAMSA) worked out at 6800 nM. In addition, the MTD in data set [3] (iv) is 140 mg/kg; in data set [3] (sc) it was 1150 mg/kg.
For `Cc1cc(-c2c(F)cc3c4nn(C5CCCCC5)c(=O)c-4cn(C4CC4)c3c2F)cc(C)n1` [Example 40], the IC50 in data set [1] came out at 190 nM; in data set [2], 680 nM. On human topoisomerase II (setting [4]), the EC50 was determined as 900 nM.
As to `Cc1cc(-c2c(F)cc3c4nn(C5CCCC5)c(=O)c-4cn(C4CC4)c3c2F)cc(C)n1` [Example 41], the IC50 in data set [1] was found to be 380 nM; in data set [2], 1100 nM. Moreover, the concentration for a half-maximal effect (EC50) at human topoisomerase II (setting [4]) was 4000 nM.
In the same order, the values of `Cc1cc(-c2c(F)cc3c4nn(C5CCCCCC5)c(=O)c-4cn(C4CC4)c3c2F)cc(C)n1` [Example 42] are 1500 nM, 4200 nM and 2900 nM.
With `Cc1cc(-c2c(F)cc3c4nn(CC5CCCCC5)c(=O)c-4cn(C4CC4)c3c2F)cc(C)n1` [Example 43], the results for the concentration for half-maximal inhibition (IC50) in data set [1] and in data set [2] were 4900 nM and 6700 nM, respectively. Moreover, the concentration for a half-maximal effect (EC50) on human topoisomerase II (setting [4]) came to 8200 nM.
In the same order, the values of `Cc1cc(-c2c(F)cc3c4nn(C5CCOCC5)c(=O)c-4cn(C4CC4)c3c2F)cc(C)n1` [Example 46] are 250 nM, 290 nM and 1700 nM.
In the same order, the values of `Cc1cc(-c2c(F)cc3c4nn(C5CCNCC5)c(=O)c-4cn(C4CC4)c3c2F)cc(C)n1` [Example 49] are 2500 nM, 2300 nM and 5600 nM.
Consider `Cc1cc(-c2c(F)cc3c4nn(C5CCN(C)CC5)c(=O)c-4cn(C4CC4)c3c2F)cc(C)n1` [Example 50], for which the half-maximal inhibitory concentration (IC50) in data set [2] was determined as 94 nM. Also, on human topoisomerase II (setting [4]), the EC50 turned out to be 3200 nM. In data set [3] (iv), this compound returned an MTD of 128 mg/kg.
As for `CC(=O)N[C@H]1CC[C@@H](n2nc3c4cc(F)c(-c5cc(C)nc(C)c5)c(F)c4n(C4CC4)cc-3c2=O)CC1` [Example 52a], the IC50 in data set [2] is 1300 nM. Besides, on human topoisomerase II (setting [4]), the 50% effective concentration (EC50) is 7400 nM.
In the same order, the values of `CC(=O)N[C@H]1CC[C@H](n2nc3c4cc(F)c(-c5cc(C)nc(C)c5)c(F)c4n(C4CC4)cc-3c2=O)CC1` [Example 52b] are 1200 nM and 9800 nM.
Consider `Cc1cc(-c2c(F)cc3c4nn(CCCCN(C)C)c(=O)c-4cn(C4CC4)c3c2F)cc(C)n1` [Example 54, 5-Cyclopropyl-6,8-difluoro-2,5-dihydro-2-[4-(dimethylamino)-butyl]-7-(2,6-dimethyl-4-pyridinyl) -3H-pyrazolo[4,3-c]quinolin-3-one], for which the IC50 in data set [1] was found to be 500 nM; in data set [2] it was 400 nM. Moreover, on human topoisomerase II (setting [4]), the EC50 was 15000 nM.
In the same order, the values of `Cc1cc(-c2c(F)cc3c4nn(CCNC(C)(CO)CO)c(=O)c-4cn(C4CC4)c3c2F)cc(C)n1` [Example 55] are 25000 nM, 11000 nM and 11000 nM.
For the compound `Cc1cc(-c2c(F)cc3c4nn([C@H]5CC[C@@H](NC=O)CC5)c(=O)c-4cn(C4CC4)c3c2F)cc(C)n1` [Example 57, 2-(cis-4-formamidocyclohexyl)-5-cyclopropyl-6,8-difluoro-2,5-dihydro-7-(2,6-dimethyl-4-pyridinyl)-3H-pyrazolo[4,3-c]quinolin-3-one], the IC50 in data set [2] turned out to be 5100 nM. Also, the concentration giving a half-maximal response (EC50) at human topoisomerase II (setting [4]) turned out to be 800 nM.
In the same order, the values of `Cc1cc(-c2c(F)cc3c4nn([C@H]5CC[C@H](NC=O)CC5)c(=O)c-4cn(C4CC4)c3c2F)cc(C)n1` [Example 58, 2-(trans-4-formamidocyclohexyl)-5-cyclopropyl-6,8-difluoro-2,5-dihydro-7-(2,6-dimethyl-4-pyridinyl)-3H-pyrazolo[4,3-c]quinolin-3-one] are 9100 nM and 1500 nM.
